In patent publication US5985926A, “Method for inhibiting intracellular viral replication” (Cell Therapeutics, Inc., priority 1997, dated 1999):
“Also recorded” adds a separate entry of the source.

Experiments:
NFκB = NFκB activation in 293tat cells, electrophoretic mobility shift assay; format: cell-based, human; details: CT2576 12 μM, TNF-α 40 ng/ml or IL-1β 1 ng/ml
Experimental: (§1) Nuclear extracts (A) from 293tat cells were tested by EMSA for activation of NFκB. A radiolabeled 40-mer covering the NFκB sequences in the HIV promoter was used as a probe. Cells were incubated with CT2576 at 12 μM, human TNF-α at 40 ng/ml or IL-1β at 1 ng/ml, or pre-incubated for 30 min. with CT2576 and then stimulated with TNF-α or IL-1β for 18 hr prior to making extracts. RNA was extracted from 293tat cells (B) after treatment with CT2576 without or with TNF-α or IL-1β for 18 hr. Northern blots analysis were performed using probes derived from AP cDNA and G3PDH cDNA as a control for normalization of mRNA level. AP activity was determined in cell supernatants from the various samples.
(§2) NFκB binding activity in nuclear extracts (Dignam et al., Nucleic Acids Res. 11:1475-1489, 1983) of cells was measured by electrophoretic mobility-shift assay (EMSA) (Carthew et al., Cell 43:439-448, 1985) using 5'-labeled double-stranded synthetic DNA with two NF-κB motifs. Northern blot analysis was performed with total RNA run on 1% agarose/formaldehyde gel and probed with ^32 P-labeled cDNA of AP and glyceraldehyde-3-phosphate dehydrogenase (G3PDH).

[1] = test system: phosphatidic acid (PA) subspecies in 293tat cells; experiment: PA composition of 293tat cells by HPLC; format: cell-based, human
Experimental: One must first quantitatively and qualitatively separate PAs from the other lipids found in serum by a chemical extraction of lipids and high performance liquid chromatography (HPLC) to separate and detect PAs. […] Briefly, the method of Bligh et al. involves an organic extraction of lipids from biological tissue homogenates or fluids. One volume of sample and three volumes of methanol:chloroform (2:1) are vigorously shaken for 2 min. One volume of chloroform is added and then shaken vigorously for 30 sec. One volume of water is added and then shaken vigorously for 30 sec. The mixture is filtered and the upper aqueous layer is discarded. The lower organic layer contains a mixture of lipid classes. The method of Folch et al. involves the extraction of lipids from biological tissue homogenates or body fluids. One volume of sample plus 20 volumes of chloroform:methanol (2:1) are vigorously shaken for 2 min. The mixture is filtered and an amount of 0.1 N KCl equal to 20% of the extraction mixture volume is added and the mixture is shaken vigorously for 2 min. The aqueous and organic phases are allowed to separate. The upper aqueous layer is discarded. The lower organic layer contains a mixture of lipid classes. […] This method involves separation of lipids into their major classes by normal phase (silica) high performance liquid chromatography (HPLC). A 5 micron, 25 cm×0.45 cm silica HPLC column is connected to a binary solvent delivery system followed with a UV detector. The lipid sample is injected on the column and a solvent gradient is run at 1.0 ml/min. The solvent gradient is hexane:isopropanol:water in the proportions 3:4:0.75 run isocratically for 3 min, then ramped to hexane:isopropanol:water in the proportions 3:4:1.4 in 15 min, then run isocratically at the same proportions for 15 min. Detection is at 206 nm.
One of the steps after cell activation involves the hydrolysis of phosphatidylcholine (PC), the major phospholipid of cellular membranes, by phospholipases C and D, leading to the generation of second messengers, such as PA and DG, in the signal transduction cascade.

[2] = test system: PA formation in EB293 cells; experiment: PA and lyso (bis) PA species in TNF-stimulated EB293 cells (HPLC peaks D and A5); format: cell-based, human; details: CT2576 10 μM, TNF 20 ng/ml
Text: One must first quantitatively and qualitatively separate PAs from the other lipids found in serum by a chemical extraction of lipids and high performance liquid chromatography (HPLC) to separate and detect PAs. Chemical extraction can be accomplished, for example, by the method of Bligh et al. (Canadian J. Biochem. Physiol. 37:911-917, 1959) or that of Folch et al. (J. Biol. Chem. 226:497-509, 1957). Briefly, the method of Bligh et al. involves an organic extraction of lipids from biological tissue homogenates or fluids. One volume of sample and three volumes of methanol:chloroform (2:1) are vigorously shaken for 2 min. One volume of chloroform is added and then shaken vigorously for 30 sec. One volume of water is added and then shaken vigorously for 30 sec. The mixture is filtered and the upper aqueous layer is discarded. The lower organic layer contains a mixture of lipid classes. The method of Folch et al. involves the extraction of lipids from biological tissue homogenates or body fluids. One volume of sample plus 20 volumes of chloroform:methanol (2:1) are vigorously shaken for 2 min. The mixture is filtered and an amount of 0.1 N KCl equal to 20% of the extraction mixture volume is added and the mixture is shaken vigorously for 2 min. The aqueous and organic phases are allowed to separate. The upper aqueous layer is discarded. […]

AP mRNA in 293tat cells = experiment: AP mRNA level in 293tat cells, Northern blot; format: cell-based, human; details: with TNF-α or IL-1β
Experimental: as §1, §2

| Compound | effect on cell viability / cytotoxicity (293-EBNA cells) | activation of NFκB (NFκB) | effect on generation of myrPA species / turnover of PA subspecies [1] | long chain unsaturated PA, share of far UV absorbing lipids after preincubation ([1]; 8 μM CT2576) | long chain unsaturated PA, share of far UV absorbing lipids after 2 minutes TNF-α ([1]; 8 μM CT2576, 2 minutes of TNF-α) | short chained saturated PA subspecies ([1]; preincubation with 8 μM CT2576) | PA mass (peak D), TNF-stimulated EB293 cells [2] | lyso (bis) PA species (peak A5), TNF-stimulated EB293 cells [2] | AP transcript / mRNA steady-state level (AP mRNA in 293tat cells) |
| --- | --- | --- | --- | --- | --- | --- | --- | --- | --- |
| CCCCCCCCNCC(O)CCCCCCCCCN1C(=O)CCN(C)C1=O (stereo not drawn) [CT1829, 3-(11-octylamino-10-hydroxyundecyl)-1-methyldihydrouracil] | minimal cytotoxic effects |  |  |  |  |  |  |  |  |
| CCCCCCCCNCC(O)CCCCCCCCCn1c(=O)c2c(ncn2C)n(C)c1=O (stereo not drawn) [CT2576, 1-(11-octylamino-10-hydroxyundecyl)-3,7-dimethylxanthine] |  | did not inhibit TNF-α dependent activation of NFκB | affected the turnover of PA subspecies; also recorded: affects the generation of myrPA species | 15% | 20% | less after CT2576 preincubation than without treatment; also recorded: very little change with addition of TNF-α | reduced PA mass across all time points measured | increased lyso (bis) PA species across all time points | increase in mRNA level; also recorded: did not block expression at the transcription stage |
